± gives the standard deviation of the averaged measurements.
System: HS729
Experiment: relative viability vs DMSO control (72 h) (fraction); higher = more viable cells
Summary of the method: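 Sarcoma cell lines in 384-well plates, seeded to reach 80–90% confluence, were given compound after 24 h and kept 72 h at 37 °C, 5% CO2, with 0.1% DMSO vehicle and a 5 µM positive control. Relative viability came from ATPLite as percent growth, averaged over up to triplicate wells. On the rescaled values, 1 equals full and 0 equals none.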

Structure (SMILES) | relative viability (0.00017 µM) | relative viability (0.00051 µM) | relative viability (0.00152 µM) | relative viability (0.00457 µM) | relative viability (0.01372 µM) | relative viability (0.04115 µM) | relative viability (0.1235 µM) | relative viability (0.3704 µM) | relative viability (1.111 µM) | relative viability (3.333 µM) | relative viability (10 µM) | relative viability (2 pM) | relative viability (5 pM) | relative viability (15 pM) | relative viability (50 pM) | relative viability (0.00014 µM) | relative viability (0.00041 µM) | relative viability (0.0012 µM) | relative viability (0.0037 µM) | relative viability (0.011 µM) | relative viability (200 fM) | relative viability (600 fM)
Cc1ccc(F)c(NC(=O)Nc2ccc(-c3cccc4[nH]nc(N)c34)cc2)c1 [Linifanib] | 1.02 ± 0.065 | 0.958 ± 0.072 | 0.937 ± 0.052 | 0.943 ± 0.077 | 0.958 ± 0.052 | 0.896 ± 0.033 | 0.83 ± 0.033 | 0.783 ± 0.018 | 0.7353 ± 0.0054 | 0.762 ± 0.049 | 0.689 ± 0.055 |  |  |  |  |  |  |  |  |  |  | 
C[C@]1(O)C[C@@H](c2nc(-c3ccc4ccc(-c5ccccc5)nc4c3)c3c(N)nccn32)C1 [Linsitinib] | 1.04 ± 0.051 | 1.02 ± 0.073 | 0.996 ± 0.053 | 0.969 ± 0.026 | 0.921 ± 0.033 | 0.842 ± 0.012 | 0.757 ± 0.047 | 0.655 ± 0.07 | 0.588 ± 0.047 | 0.577 ± 0.055 | 0.465 ± 0.049 |  |  |  |  |  |  |  |  |  |  | 
Cc1ccc(NC(=O)c2ccc(CN3CCN(C)CC3)cc2)cc1Nc1nc(-c2cccnc2)cs1 [Masitinib] | 1.06 ± 0.064 | 1.06 ± 0.043 | 0.984 ± 0.066 | 1.03 ± 0.085 | 1.03 ± 0.037 | 1.04 ± 0.063 | 0.969 ± 0.038 | 0.913 ± 0.04 | 0.851 ± 0.054 | 0.576 ± 0.018 | 0.139 ± 0.022 |  |  |  |  |  |  |  |  |  |  | 
CC1(C)CNc2cc(NC(=O)c3cccnc3NCc3ccncc3)ccc21 [Motesanib] | 0.999 ± 0.075 | 1.03 ± 0.077 | 1 ± 0.077 | 1 ± 0.043 | 0.992 ± 0.037 | 1.03 ± 0.064 | 0.955 ± 0.073 | 0.932 ± 0.046 | 0.872 ± 0.051 | 0.828 ± 0.019 | 0.779 ± 0.065 |  |  |  |  |  |  |  |  |  |  | 
CC(C)N1CCN(Cc2cnc(-c3cc(-c4cccc5[nH]ccc45)cc4[nH]ncc34)o2)CC1 [Nemiralisib] | 1.06 ± 0.022 | 0.984 ± 0.026 | 0.98 ± 0.067 | 0.938 ± 0.038 | 0.978 ± 0.059 | 0.97 ± 0.067 | 0.892 ± 0.012 | 0.909 ± 0.063 | 0.787 ± 0.029 | 0.653 ± 0.037 | 0.52 ± 0.029 |  |  |  |  |  |  |  |  |  |  | 
C=CC(=O)Nc1cccc(Oc2nc(Nc3ccc(N4CCN(C)CC4)cc3)nc3ccsc23)c1 [Olmutinib] | 1.02 ± 0.095 | 1.03 ± 0.1 | 0.996 ± 0.094 | 0.988 ± 0.07 | 0.922 ± 0.05 | 0.968 ± 0.11 | 0.958 ± 0.093 | 0.904 ± 0.097 | 0.925 ± 0.079 | 0.887 ± 0.051 | 0.713 ± 0.059 |  |  |  |  |  |  |  |  |  |  | 
CC(C)(C)c1cc(NC(=O)Nc2ccc(-c3cn4c(n3)sc3cc(OCCN5CCOCC5)ccc34)cc2)no1 [Quizartinib] | 1.03 ± 0.1 | 0.973 ± 0.047 | 1 ± 0.11 | 0.976 ± 0.12 | 1.01 ± 0.084 | 0.953 ± 0.062 | 1.01 ± 0.12 | 0.873 ± 0.069 | 0.894 ± 0.12 | 0.873 ± 0.061 | 0.929 ± 0.061 |  |  |  |  |  |  |  |  |  |  | 
CNC(=O)c1cc(Oc2ccc(NC(=O)Nc3ccc(Cl)c(C(F)(F)F)c3)c(F)c2)ccn1 [Regorafenib] | 1.08 ± 0.027 | 1.07 ± 0.04 | 1.03 ± 0.048 | 1.02 ± 0.046 | 0.945 ± 0.093 | 0.9469 ± 0.0076 | 0.98 ± 0.069 | 0.845 ± 0.014 | 0.824 ± 0.039 | 0.809 ± 0.014 | 0.651 ± 0.014 |  |  |  |  |  |  |  |  |  |  | 
CO[C@H]1C[C@@H]2CC[C@@H](C)[C@@](O)(O2)C(=O)C(=O)N2CCCC[C@H]2C(=O)O[C@H]([C@H](C)C[C@@H]2CC[C@@H](OP(C)(C)=O)[C@H](OC)C2)CC(=O)[C@H](C)/C=C(\C)[C@@H](O)[C@@H](OC)C(=O)[C@H](C)C[C@H](C)/C=C/C=C/C=C/1C [Ridaforolimus] | 0.962 ± 0.012 | 1 ± 0.045 | 0.977 ± 0.048 | 0.907 ± 0.1 | 0.923 ± 0.054 | 0.944 ± 0.0096 | 0.916 ± 0.12 | 0.924 ± 0.096 | 0.86 ± 0.14 | 0.786 ± 0.065 | 0.763 ± 0.052 |  |  |  |  |  |  |  |  |  |  | 
COCc1c(-c2cc3cc(C)cc(OC)c3s2)c2c(N)ncnn2c1CN1CCNC(=O)C1 [Rogaratinib] | 1.06 ± 0.024 | 0.957 ± 0.068 | 0.967 ± 0.036 | 0.91 ± 0.052 | 0.92 ± 0.11 | 0.882 ± 0.034 | 0.755 ± 0.041 | 0.645 ± 0.037 | 0.582 ± 0.039 | 0.485 ± 0.031 | 0.348 ± 0.024 |  |  |  |  |  |  |  |  |  |  | 
N#CC[C@H](C1CCCC1)n1cc(-c2ncnc3[nH]ccc23)cn1 [Ruxolitinib] | 1.07 ± 0.028 | 1.07 ± 0.028 | 1.06 ± 0.028 | 1.05 ± 0.027 | 1.02 ± 0.068 | 1.06 ± 0.031 | 1.01 ± 0.031 | 0.989 ± 0.035 | 0.938 ± 0.086 | 0.894 ± 0.1 | 0.764 ± 0.041 |  |  |  |  |  |  |  |  |  |  | 
Cc1cc(C)c(/C=C2\C(=O)Nc3ccccc32)[nH]1 [Semaxanib] | 0.893 ± 0.093 | 0.895 ± 0.11 | 0.895 ± 0.074 | 0.889 ± 0.093 | 0.871 ± 0.086 | 0.883 ± 0.097 | 0.853 ± 0.078 | 0.821 ± 0.069 | 0.762 ± 0.07 | 0.747 ± 0.057 | 0.613 ± 0.036 |  |  |  |  |  |  |  |  |  |  | 
Cc1nc(-c2cn3c(n2)-c2ccc(-c4cnn(C(C)(C)C(N)=O)c4)cc2OCC3)n(C(C)C)n1 [Taselisib] | 0.913 ± 0.018 | 0.935 ± 0.041 | 0.893 ± 0.045 | 0.891 ± 0.076 | 0.798 ± 0.066 | 0.756 ± 0.062 | 0.644 ± 0.053 | 0.629 ± 0.019 | 0.5241 ± 0.0042 | 0.487 ± 0.013 | 0.429 ± 0.014 |  |  |  |  |  |  |  |  |  |  | 
CN1CCC(COc2cnc(-c3cccc(Cn4nc(-c5cccc(C#N)c5)ccc4=O)c3)nc2)CC1 [Tepotinib] | 1.04 ± 0.054 | 1 ± 0.048 | 0.988 ± 0.034 | 0.983 ± 0.041 | 0.941 ± 0.057 | 0.928 ± 0.055 | 0.987 ± 0.027 | 0.894 ± 0.02 | 0.926 ± 0.038 | 0.831 ± 0.029 | 0.829 ± 0.035 |  |  |  |  |  |  |  |  |  |  | 
COc1cc2nccc(Oc3ccc(NC(=O)Nc4cc(C)on4)c(Cl)c3)c2cc1OC [Tivozanib] | 0.898 ± 0.058 | 0.883 ± 0.018 | 0.9572 ± 0.0089 | 0.923 ± 0.046 | 0.921 ± 0.052 | 0.882 ± 0.017 | 0.869 ± 0.043 | 0.891 ± 0.044 | 0.894 ± 0.05 | 0.817 ± 0.0084 | 0.722 ± 0.02 |  |  |  |  |  |  |  |  |  |  | 
C[C@@H]1CCN(C(=O)CC#N)C[C@@H]1N(C)c1ncnc2[nH]ccc12 [Tofacitinib] | 1.03 ± 0.017 | 0.957 ± 0.029 | 0.936 ± 0.031 | 0.927 ± 0.036 | 0.889 ± 0.036 | 0.835 ± 0.065 | 0.802 ± 0.029 | 0.828 ± 0.013 | 0.861 ± 0.03 | 0.846 ± 0.02 | 0.75 ± 0.059 |  |  |  |  |  |  |  |  |  |  | 
COc1cc2c(cc1O)CCN[C@]21CS[C@@H]2c3c(OC(C)=O)c(C)c4c(c3[C@H](COC1=O)N1[C@@H]2[C@H]2c3c(cc(C)c(OC)c3O)C[C@@H]([C@@H]1O)N2C)OCO4 [Trabectedin] |  |  |  |  |  |  |  |  |  |  |  | 0.999 ± 0.056 | 0.952 ± 0.019 | 0.957 ± 0.067 | 0.859 ± 0.044 | 0.557 ± 0.15 | 0.137 ± 0.14 | 0.183 ± 0.041 | 0.166 ± 0.0097 | 0.124 ± 0.0083 | 1.02 ± 0.048 | 1.05 ± 0.034
CC(=O)Nc1cccc(-n2c(=O)n(C3CC3)c(=O)c3c(Nc4ccc(I)cc4F)n(C)c(=O)c(C)c32)c1 [Trametinib] | 1.05 ± 0.081 | 0.991 ± 0.036 | 0.918 ± 0.066 | 0.941 ± 0.051 | 0.789 ± 0.021 | 0.766 ± 0.013 | 0.73 ± 0.031 | 0.661 ± 0.018 | 0.638 ± 0.029 | 0.628 ± 0.033 | 0.611 ± 0.031 |  |  |  |  |  |  |  |  |  |  | 
Cc1cc(Nc2ncnc3ccc(NC4=NC(C)(C)CO4)cc23)ccc1Oc1ccn2ncnc2c1 [Tucatinib] | 1.05 ± 0.04 | 1.05 ± 0.028 | 1.06 ± 0.029 | 0.987 ± 0.06 | 0.974 ± 0.032 | 0.965 ± 0.061 | 0.967 ± 0.015 | 0.963 ± 0.032 | 0.957 ± 0.034 | 0.924 ± 0.071 | 0.909 ± 0.056 |  |  |  |  |  |  |  |  |  |  | 
